Measurements taken from patent US6321750A, “Condom lubricants with zinc salts as anti-viral additives” (priority 1999, dated 2001).
“Also recorded” adds a separate entry of the source. Where two headings read alike, the source gives them in different places.

Experiments:
H-9 lymphocytes = assay: Toxicity to lymphocytes; format: cell-based
Experimental: (§1) In a first set of tests, 20 mg of zinc acetate powder (ZnAc, MW 183.4) was mixed in 1 ml RPMI cell culture medium (Whittaker Corp.). This 2% (w/v) salt mixture contained 7 mg/ml elemental Zn. […] Therefore, a small quantity of HCl was added until the mixture became clear; the pH was about 5.5. The Zn concentration was reduced by half (and the pH was raised somewhat) when an equal volume (1 ml) of cell-free high-titer HIV-1 viral stock was added. The zinc/virus mixture was stirred and incubated for 2 hours at 37° C. (i.e., normal body temperature).
(§2) Following this first incubation step, the zinc/virus mixtures were diluted at 1:10, 1:30, and 1:100 ratios using culture medium, and aliquots were added to equal volumes of culture media containing H-9 lymphocytes that had been pretreated overnight with 2 μg/ml Polybreen. The lymphocyte mixtures were incubated for three hours at 37° C.; zinc concentrations during this step were 180, 60, and 18 μg/ml for the 1:10, 1:30, and 1:100 dilutions.
A 2 ml aliquot from each dilution was mixed with an equal volume of 3% ZnAc dissolved in sterile distilled water; after mixing, the zinc concentration was 5.3 mg/ml Zn. These mixtures were incubated for 2 hours, then diluted with culture medium at 1:30, 1:100, and 1:1000 to reduce the toxicity of the zinc to lymphocytes. Four ml of lymphocytes were mixed with 4 ml of each zinc/virus mixture. The zinc/virus/cell mixtures were incubated at 37° C. for 3 hours; zinc concentrations were 88, 27, and 2.7 μg/ml in the 30, 100, and 1000 dilutions.

[1] = water; cited from earlier work
male genitals = assay: Irritation test on male genitals / urethra; conditions: gel in K-Y Lubricating Jelly, about 5% w/v; passive and active rubbing
Experimental: In all examples, the test subjects were a monogamous married couple, free of genital herpes and all other known sexually transmitted viruses.
The mixture of zinc acetate in K-Y Lubricating Jelly was tested on the male genitals, passively at first and then with active rubbing.
About 0.5 grams were dissolved in several drops of distilled water and tested on the forearm and genitals.

[2] = cited from earlier work
HIV = HIV precipitation test; conditions: 2% ZnAc with equal volume of undiluted viral stock
Experimental: Precipitation tests using HIV were also carried out Biotech Research Laboratories, using 2% ZnAc which was mixed with an equal volume of undiluted viral stock, incubated for 24 hours, and centrifuged at 1500 rpm in a tabletop centrifuge for 5 minutes. The supernatant was sampled ([…]) and serially diluted by medium, at 1:10 followed by 2× dilutions (1:20, 1:40, 1:80, etc) to a maximum dilution of 1:10240. Each dilution was analyzed spectrophotometrically to determine the concentration of viruses suspended in solution. After sampling, each tube was hand-mixed and incubated for 24 hours. The solution near the top of the tube was sampled again, serially diluted, and tested using the ELISA assay. The tube was hand-mixed again, incubated for three more days, and sampled again to obtain Day 5 values.

HIV-1 = assay: High-titer HIV infectivity test (two-step incubation, p24 ELISA); format: cell-based; conditions: for HIV infectivity: high-titer stock
Experimental: The initial set of HIV tests were carried out at Biotech Research Laboratories (Rockville, Md.). The HIV-1 viral isolate and H-9 cell line were originally supplied by Robert Gallo of the NCI.
as §1, §2
The cell aliquots were then washed twice, using culture medium, to remove free p24 proteins that are present in the initial viral stock. Such proteins will skew ELISA readings if not removed by washing. Cells were then resuspended in fresh medium containing 10% fetal calf serum (FCS) and cultured for 20 days. During this period, each tube was periodically sampled by hand-mixing the tube, withdrawing 100 μl of liquid from the top, and testing the sample for p24 antigens using ELISA assays.
A positive control was used at each dilution. Viral aliquots not treated with zinc were identically diluted, mixed with lymphocytes, cultured, and tested. Negative controls were also run, in which H-9 cells were plated and grown in the absence of any virus or zinc; these provided background levels that vary slightly from day to day, depending on factors such as spectrophotometer calibrations and rinsing conditions.

vagina = assay: Irritation test in shallow region of the vagina (volunteer); format: in vivo, human
forearm = assay: Irritation test on forearm / skin; format: in vivo, human
Experimental: Zinc acetate was purchased from Pfaltz and Bauer (Waterbury, Connecticut). About 0.5 grams were mixed with several drops of distilled water at room temperature. […] The aqueous mixture was rubbed into an area about 3 cm in diameter on the forearm of […] and caused no irritation. Subsequently, about 0.5 grams of the salt were dissolved in a few drops of distilled water, then 10 ml K-Y Lubricating Jelly (sold by Johnson and Johnson, New Brunswick, N.J.) was added to form a gel mixture containing about 5% zinc acetate (w/v). This commercially available mixture contains purified water, hydroxyethyl-cellulose as a thickening agent, glycerin as a lubricant, glucono-delta-lactate to prevent crystallization, chlorhexidine gluconate as a preservative, and sodium hydroxide to reduce the acidity.

[3] = Acidity tests: pH of 5% w/v zinc salt solutions; conditions: 5% w/v in distilled deionized water
several cell lines = assay: Zinc toxicity in several cell lines; conditions: read-out: concentration at which toxicity began to appear in mild form, all comparable
[4] = tested on: genitals (both persons, during intercourse); assay: Irritation test of lubricant during intercourse / human volunteers; format: in vivo
From the text: Subsequently, the gel formulation was applied topically and used as a sexual lubricant during intercourse. Both people wiped off the excess with a tissue after intercourse, but neither person showered or washed off the lubricant until the following day. It caused no irritation to either person.

In the case of Zinc acetate, the cell mortality (H-9 lymphocytes; 88 μg/ml Zn, 3 h) is reported as “significant cell mortality”, the lymphocyte mortality (H-9 lymphocytes; 1:10 dilution, 180 μg/ml Zn, 3 h) is reported as “substantial mortality to the lymphocytes” and the lymphocyte growth (H-9 lymphocytes; 1:30 dilution, 60 μg/ml Zn, visual observation) is reported as “retarded cell growth during the first few days”. The cell mortality (H-9 lymphocytes; lower levels (27 and 2.7 μg/ml Zn), 3 h) was “no cell mortality”, the Molar solubility [1] was 1.64 and the Solubility [1] was 300. For the same substance, the “irritation, male genitals” value (male genitals) was “no irritation”, the ionization rate ([2]; in aqueous solution) was no more than 30% and the “Reported pK values” ([2]; in water, values below 2 refer to release of a single carboxy anion) was 1.03. The “virus precipitation” value (HIV) was “substantial precipitation of the virus”, the p24 concentrations (HIV-1; 1% zinc acetate 2 h, diluted 1:30 (60 μg/ml Zn), 20 days culture) was “indistinguishable from background levels” and the HIV infectivity (HIV-1; 1% zinc acetate 2 h, diluted 1:30 (60 μg/ml Zn)) was “completely eliminated”. For the same substance, the HIV infectivity (HIV-1; 1% zinc acetate 2 h, diluted 1:30 (60 μg/ml Zn), listed as ZnAc) was “completely abolished viral infectivity”, the HIV infectivity (HIV-1; 1% zinc acetate 2 h, diluted 1:100 (18 μg/ml Zn)) was “reduced and delayed” and the HIV infectivity (HIV-1; 1% zinc acetate 2 h, diluted 1:100 (18 μg/ml Zn), listed as ZnAc) was “suppressed and retarded HIV infectivity”. The “inhibition of HIV particles (summary of Examples 8-10)” value (HIV-1; two-step incubation assay, FIGS. 1-4) was “inhibited or entirely inactivated the HIV particles”, the “solubility in cell culture medium / water” value (20 mg in 1 ml RPMI culture medium containing protein) was “generated a precipitate in the culture medium” and the “solubility in water” value (general statement) was “highly soluble in water”. The “solubility in water” value (salt in a few drops of distilled water, room temperature) was “dissolved completely”, the “irritation, vagina” value (vagina; dissolved in (distilled) water alone) was “unpleasant tingling or mild burning sensation; also recorded: vaginal irritation” and the “irritation, vagina / female genitals” value (vagina; gel in K-Y Lubricating Jelly, about 5% w/v, passive test) was “no tingling, burning, or other unpleasant sensation”. The “irritation, forearm” value (forearm; about 0.5 g in several drops of distilled water) was “no irritation”, the “burning and irritation to the skin” value (forearm; dissolved in water alone) was “substantial amount of burning and irritation to the skin” and the “pH of solution (rounded)” value [3] was “about 6.2”. For the same substance, the pH of solution ([3]; 0.05 subtracted from meter reading, approximately accurate) was 6.27, the MCC (several cell lines) was roughly 100 mM and the irritation during intercourse ([4]; gel in K-Y Lubricating Jelly, about 5% w/v) was “no irritation; also recorded: Neither of these salts caused any irritation”. For the same substance, the “irritation of gel / genital lubricant formulations” value ([4]; in gel or genital lubricant, human volunteers) was “did not cause any irritation”.
